Legend:
rat MCAO model = test: Brain infarction volume and brain edema volume in rats with local brain ischemia (MCAO model); assay type: in vivo, Wistar rats
From the text: Wistar rats (50% of rats is female and another 50% of rats is male); 5-bromo-2-(α-hydroxypentyl)benzoic acid sodium salt (BZP, in the form of amorphous form, crystal form A and crystal form B, prepared according to the present invention), prepared in double distilled water; […] is in the form of white powder, manufactured by Beijing Chemical Works.
Administration method: 5-bromo-2-(α-hydroxypentyl)benzoic acid sodium salt (BZP) was intravenously injected at one hour before MCAO, with the dosage of 12 mg/kg; 5-bromo-2-(α-hydroxypentyl)benzoic acid sodium salt (BZP) was used to intragastric administration at one hour before MCAO, with the dosage of 20 mg/kg. 2-(α-hydroxypentyl)benzoic acid potassium salt (NBP-K) was used as positive control, and its dosage (calculated in moles) is the same as that of 5-bromo-2-(α-hydroxypentyl)benzoic acid sodium salt, that is, the dosage of intravenous injection is 9.6 mg/kg, and the dosage of intragastric administration is 15.9 mg/kg.
Preparation of MCAO model: Establish a focal brain ischemia-reperfusion injury model by cerebral artery obstruction in rats with suture-occluded method. Rats were intraperitoneally injected with 10% chloral hydrate to anesthetize. Rats were fixed on back and the skin of neck center was incised. The left common carotid artery, external carotid artery, and internal carotid artery were subjected to blunt dissection. The pterygopalatine artery was ligated, only remaining cranial trunk of internal carotid artery; a prepared nylon rope (burning diameter 0.3 mm) was inserted via external carotid artery incision into the bifurcation of the […], and was pushed along the cranial direction of the internal carotid artery. […] This indicates one side of the middle cerebral artery occlusion model was completed. Sutured the incision, remained the end of nylon line out of the skin. For reperfusion, the nylon line was gently pulled out. If feel force of resistance, this indicates the end of nylon line has returned to the trunk of external carotid artery, thereby accomplishing reperfusion.
Determination of infarction volume: After being subjected to ischemia for 2 hours and reperfusion for 24 hours, the heads of rats were cut off. Forebrain was removed and cut into six pieces, each piece being 2 mm. The pieces were stained with TC, and incubated at 37° C. for 30 minutes. Normal issues were stained to be red, but the infarcted issues were stained to be white. Took photos with digital camera, and calculated the percentage of the infarcted area relative to the spherical area of brain by Photoshop.

[1] = Solubility in water and methanol; assay type: physicochemical; conditions: sodium salt
[2] = Stability in water and methanol solution; assay type: physicochemical; conditions: sodium salt
Rat = test: Sub-acute toxicity, rat
[3] = Acute toxicity (LD50), rat; conditions: in vivo
[4] = Acute toxicity (LD50), mouse; conditions: in vivo
[5] = intragastric administration one hour before MCAO, BZP 20 mg/kg, NBP-K 15.9 mg/kg, sodium salt
[6] = intravenous injection one hour before MCAO, 12 mg/kg, sodium salt, 12 mg/kg
[7] = intravenous injection one hour before MCAO, BZP 12 mg/kg, NBP-K 9.6 mg/kg, ischemia 2 hours, reperfusion 24 hours, sodium salt
[8] = intravenous injection one hour before MCAO, BZP 12 mg/kg, NBP-K 9.6 mg/kg, sodium salt
[9] = intragastric administration one hour before MCAO, BZP 20 mg/kg, NBP-K 15.9 mg/kg
[10] = intravenous injection one hour before MCAO, 12 mg/kg

CCCCC(O)c1ccc(Br)cc1C(=O)[O-].[Na+] (stereo not drawn) [BZP (crystal form B), 5-bromo-2-(α-hydroxypentyl)benzoic acid sodium salt]
Edema (%) (rat MCAO model; [5]): 2.87 ± 1.56^aa** % | Infarction volume (%) (rat MCAO model; [5]): 7.13 ± 2.98^aa** % | Inhibition of edema (%) (rat MCAO model; [5]): 85.09% | Inhibition of infarction volume (%) (rat MCAO model; [5]): 86.03% | Edema (%) (rat MCAO model; [6]): 4.20 ± 2.03a % | Inhibition of edema (%) (rat MCAO model; [6]): 78.71% | Infarction volume (%) (rat MCAO model; [7]): 4.76 ± 1.45 aa % | Inhibition of infarction volume (%) (rat MCAO model; [8]): 91.09% | Solubility in methanol ([1]; listed as BZP (Form B)): 1630 mg/mL | Solubility in water ([1]; listed as BZP (Form B)): 2430 mg/mL | Stability ([2]; in methanol solution, listed as BZP (Form B)): >24 h | Stability ([2]; in water, listed as BZP (Form B)): >24 h

CCCCC(O)c1ccc(Br)cc1C(=O)[O-].[Na+] (mixture of isomers) [BZP (mixture), 5-bromo-2-(α-hydroxypentyl)benzoic acid sodium salt, reference compound]
Solubility in methanol [1]: 1580 mg/mL | Solubility in water [1]: 2130 mg/mL | Stability ([2]; in methanol solution): >12 h | Stability ([2]; in water): >12 h

CCCCC(O)c1ccccc1C(=O)[O-].[K+] (stereo not drawn) [NBP-K, 2-(α-hydroxypentyl)benzoic acid potassium salt, reference compound]
Edema (%) (rat MCAO model; [9]): 11.04 ± 1.48^aa** % | Infarction volume (%) (rat MCAO model; [9]): 22.28 ± 2.65^aa % | Inhibition of edema (%) (rat MCAO model; [9]): 42.65% | Inhibition of infarction volume (%) (rat MCAO model; [9]): 58.3% | Edema (%) (rat MCAO model; [10]): 12.38 ± 1.29% | Inhibition of edema (%) (rat MCAO model; [10]): 9.37% | Inhibition of infarction volume (%) (rat MCAO model; intravenous injection one hour before MCAO, BZP 12 mg/kg, NBP-K 9.6 mg/kg): 54.42% | Infarction volume (%) (rat MCAO model; intravenous injection one hour before MCAO, BZP 12 mg/kg, NBP-K 9.6 mg/kg, ischemia 2 hours, reperfusion 24 hours): 24.35 ± 4.32^aa % | Sub-acute (Rat; ig): >20 mg/kg | Sub-acute (Rat; iv): >12 mg/kg | LD50 ([3]; iv): 230 mg/kg | LD50 ([3]; po): 623 mg/kg | LD50 ([4]; iv): 303 mg/kg | LD50 ([4]; po): 880 mg/kg

CCCCC(O)c1ccc(Br)cc1C(=O)[O-].[Na+] (stereo not drawn) [5-bromo-2-(α-hydroxypentyl)benzoic acid sodium salt]
Activity compared with 2-(α-hydroxypentyl)benzoic acid potassium salt (rat MCAO model; at the same dosage, conclusion in words): obviously better than 2-(α-hydroxypentyl)benzoic acid potassium salt | Effect on brain tissue injury induced by obstruction of cerebral arteries (rat MCAO model; rats, conclusion in words): can obviously reduce brain tissue injury induced by obstruction of cerebral arteries

CCCCC(O)c1ccc(Br)cc1C(=O)[O-].[Na+] (stereo not drawn) [BZP (crystal form A), 5-bromo-2-(α-hydroxypentyl)benzoic acid sodium salt]
Edema (%) (rat MCAO model; [5]): 2.7 ± 1.30^aa** % | Infarction volume (%) (rat MCAO model; [5]): 7.13 ± 2.98 aa % | Inhibition of edema (%) (rat MCAO model; [5]): 87.55% | Inhibition of infarction volume (%) (rat MCAO model; [5]): 86.65% | Edema (%) (rat MCAO model; [6]): 3.24 ± 4.11^aa* % | Inhibition of edema (%) (rat MCAO model; [6]): 81.28% | Infarction volume (%) (rat MCAO model; [7]): 4.54 ± 1.73 aa % | Inhibition of infarction volume (%) (rat MCAO model; [8]): 91.50% | Solubility in methanol ([1]; listed as BZP (Form A)): 1800 mg/mL | Solubility in water ([1]; listed as BZP (Form A)): 2360 mg/mL | Stability ([2]; in methanol solution, listed as BZP (Form A)): >24 h | Stability ([2]; in water, listed as BZP (Form A)): >20 h

— patent publication US11148991B2, “5-bromo-2-(alpha-hydroxypentyl)benzoic acid sodium salts in different crystal forms, and preparation method thereof” (priority 2013, dated 2021)
